Test results published in ChEMBL document CHEMBL4837181 (Eur J Med Chem, 2020).
pIC50: −log10 of the molar value.

Assays:
[1] = Cmax in human up to 1200 mg administered bid; assay type: ADME; set-up: dose <=1200
[2] = AUC (0 to 24 hrs) in male cynomolgus monkey at 75 mg/kg, po measured on day 1; assay type: ADME, organism-based, Macaca fascicularis; set-up: time < 24 hr, route oral, dose 75 mg/kg; conditions: in vivo
[3] = Half life in rat; assay type: ADME; conditions: in vivo
[4] = Change in normalised Cmax in rat at 50 mg/kg, po measured upto 72 hrs by LC-MS/MS analysis; assay type: ADME, organism-based; conditions: in vivo
[5] = AUC (0 to infinity) in human at 2400 mg administered bid; assay type: ADME; set-up: time infinity, dose 2400 mg; conditions: in vivo
[6] = Tmax in male cynomolgus monkey at 75 mg/kg, po measured on day 1; assay type: ADME, organism-based, Macaca fascicularis; conditions: in vivo
[7] = Dose normalized Cmax in rat at 50 mg/kg, po measured upto 72 hrs by LC-MS/MS analysis; assay type: ADME, organism-based; conditions: in vivo
[8] = Protein binding in human plasma; assay type: ADME, cell-free; conditions: read-out: PPB
[9] = Stability in human plasma assessed as parent compound remaining measured after 24 hrs by LC-MS/MS analysis; assay type: ADME, cell-free; conditions: read-out: Stabilty
[10] = Toxicity in rat assessed as decreased food assumption at 150 to 180 mg/kg, po; assay type: organism-based; conditions: in vivo, dose 150-180 mg/kg
[11] = Drug metabolism in cynomolgus monkey assessed as ratio of indoximod to parent compound at 75 to 375 mg/kg, po BID administered […]; assay type: ADME, organism-based, Macaca fascicularis; conditions: in vivo, dose 75-375 mg/kg
[12] = Oral bioavailability in male cynomolgus monkey at 275 micromol/kg; assay type: ADME, organism-based, Macaca fascicularis; conditions: in vivo, at 275 µmol/kg
[13] = Solubility in simulated gastric fluid; assay type: physicochemical
[14] = Oral bioavailability in female cynomolgus monkey at 75 mg/kg; assay type: ADME, organism-based, Macaca fascicularis; conditions: in vivo
[15] = Toxicity in rat assessed as change in behavioral parameter; conditions: in vivo
[16] = Drug metabolism in cynomolgus monkey hepatocytes assessed as unmetabolized compound at 10 uM incubated for 120 mins by UPLC-QTOF-PDA analysis; assay type: ADME, cell-based, Macaca fascicularis, Hepatocyte; conditions: read-out: Drug metabolism
[17] = Chemical stability of compound in 0.1 N aqueous HCl buffer assessed as compound remaining at pH 1 at 5 uM measured after 24 hrs by LC-MS/MS analysis; assay type: physicochemical; conditions: pH 1, 24 h
[18] = Tmax in female cynomolgus monkey at 75 mg/kg, po measured on day 1; assay type: ADME, organism-based, Macaca fascicularis; conditions: in vivo
[19] = Chemical stability of compound in saline assessed as compound remaining at 5 uM measured after 24 hrs by LC-MS/MS analysis; assay type: physicochemical; conditions: read-out: Stabilty
[20] = Toxicity in monkey assessed as change in respiratory parameter; set-up: species or system Macaca mulatta; conditions: rhesus monkey, in vivo
[21] = Drug metabolism in rat assessed as indoximod formation by measuring indoximod Tmax at 20 to 900 mg/kg; assay type: ADME, organism-based; conditions: in vivo, dose 20-900 mg/kg
[22] = Cmax in male rat at 150 mg/kg, po BID measured on day 28; assay type: ADME, organism-based; set-up: route oral, dose 150 mg/kg; conditions: in vivo
[23] = Chemical stability of compound in simulated gastric fluid assessed as compound remaining at 5 uM measured after 1.5 hrs by LC-MS/MS analysis; assay type: ADME, physicochemical; conditions: read-out: Stabilty
[24] = target: T1, Cytochrome P450 1A2 (Homo sapiens, UniProt P05177); experiment: Induction of CYP1A2 in human hepatocytes; assay type: ADME, cell-based, Hepatocyte
T1 sequence (P05177 whole entry): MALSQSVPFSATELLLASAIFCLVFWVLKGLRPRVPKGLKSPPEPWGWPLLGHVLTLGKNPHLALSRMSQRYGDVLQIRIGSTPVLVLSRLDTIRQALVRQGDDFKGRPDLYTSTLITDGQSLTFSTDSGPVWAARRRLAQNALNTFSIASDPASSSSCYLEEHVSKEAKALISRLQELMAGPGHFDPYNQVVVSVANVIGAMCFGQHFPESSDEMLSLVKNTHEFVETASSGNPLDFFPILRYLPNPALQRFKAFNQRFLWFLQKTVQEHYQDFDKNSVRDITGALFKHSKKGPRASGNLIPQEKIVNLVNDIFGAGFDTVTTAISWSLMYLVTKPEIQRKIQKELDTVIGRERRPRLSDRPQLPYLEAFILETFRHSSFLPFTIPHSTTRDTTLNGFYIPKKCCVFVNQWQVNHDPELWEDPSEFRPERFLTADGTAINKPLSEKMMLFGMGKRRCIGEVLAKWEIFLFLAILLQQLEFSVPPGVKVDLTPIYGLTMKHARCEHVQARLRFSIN

[25] = Protein binding in cynomolgus monkey plasma; assay type: ADME, cell-free, Macaca fascicularis; conditions: read-out: PPB
[26] = Solubility of the compound in buffer at pH 1.58 to 6.7; assay type: physicochemical
[27] = target: Cytochrome P450 2C9 (Homo sapiens, UniProt P11712); experiment: Inhibition of CYP2C9 in human hepatocytes; assay type: ADME, cell-based, Hepatocyte
[28] = Chemical stability of compound in 0.1 N aqueous HCl buffer assessed as compound remaining at pH 1 at 5 uM measured after 1.5 hrs by LC-MS/MS analysis; assay type: physicochemical; conditions: pH 1, 1.5 h
[29] = Drug metabolism in mouse assessed as indoximod formation by measuring indoximod Tmax at 20 to 900 mg/kg; assay type: ADME, organism-based; conditions: in vivo, dose 20-900 mg/kg
[30] = Drug metabolism in cynomolgus monkey assessed as ratio of indoximod to parent compound at 75 to 675 mg/kg, po administered as single dose; assay type: ADME, organism-based, Macaca fascicularis; conditions: in vivo, dose 75-675 mg/kg
[31] = Stability in rat plasma assessed as parent compound remaining measured after 2 hrs by LC-MS/MS analysis; assay type: ADME, cell-free; conditions: read-out: Stabilty
[32] = Drug metabolism in cynomolgus monkey assessed as indoximod formation by measuring indoximod Tmax at 75 to 375 mg/kg, po BID; assay type: ADME, organism-based, Macaca fascicularis; conditions: in vivo, dose 75-375 mg/kg
[33] = AUC (0 to 24 hrs) in male cynomolgus monkey at 15 mg/kg, iv measured on day 1; assay type: ADME, organism-based, Macaca fascicularis; set-up: time < 24 hr, route intravenous, dose 15 mg/kg; conditions: in vivo
[34] = Toxicity in rat assessed as distended abdomen at 150 to 180 mg/kg, po; assay type: organism-based; conditions: in vivo, dose 150-180 mg/kg
[35] = target: Cytochrome P450 2D6 (Homo sapiens, UniProt P10635); experiment: Inhibition of CYP2D6 in human hepatocytes; assay type: ADME, cell-based, Hepatocyte
[36] = Chemical stability of compound in PBS buffer assessed as compound remaining at pH 7.4 at 5 uM measured after 6 hrs by LC-MS/MS analysis; assay type: physicochemical; conditions: read-out: Stabilty
[37] = Genotoxicity in rat; assay type: toxicity

Chain of Cytochrome P450 2C9 (P11712 whole entry): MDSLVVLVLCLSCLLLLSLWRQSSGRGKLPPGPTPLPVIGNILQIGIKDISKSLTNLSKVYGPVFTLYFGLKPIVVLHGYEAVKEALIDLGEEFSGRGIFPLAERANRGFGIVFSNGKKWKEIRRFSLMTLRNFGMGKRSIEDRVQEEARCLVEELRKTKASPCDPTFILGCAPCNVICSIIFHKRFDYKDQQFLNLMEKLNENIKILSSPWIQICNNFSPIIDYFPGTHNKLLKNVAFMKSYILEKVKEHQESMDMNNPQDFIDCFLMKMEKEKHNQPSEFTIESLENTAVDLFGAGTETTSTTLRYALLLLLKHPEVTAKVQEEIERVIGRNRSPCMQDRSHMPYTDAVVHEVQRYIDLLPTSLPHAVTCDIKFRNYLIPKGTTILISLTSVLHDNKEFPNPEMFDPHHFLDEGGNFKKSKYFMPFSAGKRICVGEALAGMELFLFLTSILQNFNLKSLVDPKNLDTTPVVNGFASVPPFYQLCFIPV
Chain of Cytochrome P450 2D6 (P10635 whole entry): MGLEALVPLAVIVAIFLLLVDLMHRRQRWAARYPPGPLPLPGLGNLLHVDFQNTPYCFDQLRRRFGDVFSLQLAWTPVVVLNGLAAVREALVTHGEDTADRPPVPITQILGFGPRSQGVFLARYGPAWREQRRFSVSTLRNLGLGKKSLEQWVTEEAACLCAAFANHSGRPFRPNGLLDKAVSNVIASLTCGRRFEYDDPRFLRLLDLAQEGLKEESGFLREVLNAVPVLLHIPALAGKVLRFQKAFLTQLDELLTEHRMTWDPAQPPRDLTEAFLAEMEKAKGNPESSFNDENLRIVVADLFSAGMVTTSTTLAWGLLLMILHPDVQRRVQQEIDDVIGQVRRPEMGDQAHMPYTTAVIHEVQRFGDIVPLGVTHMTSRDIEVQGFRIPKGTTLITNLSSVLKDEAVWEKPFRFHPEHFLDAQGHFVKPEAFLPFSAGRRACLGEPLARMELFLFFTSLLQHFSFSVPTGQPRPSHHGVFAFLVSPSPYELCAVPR

Structure (SMILES): Cn1cc(C[C@@H](N)C(=O)O)c2ccccc21 [INDOXIMOD]
- Cmax [1]: 13.7 µM
- AUC(0-t) at 24 h [2]: 223 µM·h
- half-life [3]: 30 h
- Activity [4]: 0%
- AUC(0-inf) [5]: 170 µM·h
- Tmax [6]: 2 h
- Cmax/dose [7]: 27 µM

Structure (SMILES): CCOC(=O)[C@@H](Cc1cn(C)c2ccccc12)NC(=O)[C@@H](N)CC(C)C.Cl
- fraction unbound [8]: 0.5
- remaining at 24 h [9]: 6%
- Activity [10]: Toxic
- Ratio [11]: 690
- F [12]: 10%
- solubility [13]: 17.1 mg/mL
- bioavailability [14]: 50.1%
- Activity [15]: Non-Toxic
- remaining at 2 h, 10 µM [16]: 1.3%
- Stabilty [17]: 87%
- Tmax [18]: 2 h
- remaining at 24 h, 5 µM [19]: 87%
- Activity [20]: Non-Toxic
- Tmax [21]: 1 h
- Cmax [22]: 169 µM
- remaining at 1.5 h, 5 µM [23]: 92%
- Activity [24]: Not Active
- fraction unbound [25]: 0.5
- solubility [26]: 16.3 mg/mL
- pIC50 [27]: < 4.30
- Stabilty [28]: 90%
- Tmax [29]: 1 h
- Ratio [30]: 690
- remaining at 2 h [31]: 0%
- Tmax [32]: 1 h
- AUC [33]: 0.309 µM·h
- Activity [34]: Toxic
- pIC50 [35]: 4.72
- remaining at 6 h, 5 µM [36]: 92%
- Activity [37]: Non-Toxic
